Values joined by “and” are separate entries in the source; they are usually repeats but may differ in a detail not shown here. Equal entries are not always repeated.
Experiments:
Format in all cases: physicochemical
[1] = Hydrogel formation, vial inversion test (critical gel concentration)
Text: (§1) The simplest method to determine whether a suitable hydrogel has formed is to use the vial inversion test. Through visual inspection, a material can be categorised as a solution, viscous solution, partial gel, or solid-like gel. A stable hydrogel needs to be able to hold its weight and/or maintain its shape during this assessment.
(§2) The critical gel concentration (CGC) is defined as the minimum mass of a short peptide required to provide a self-supporting hydrogel per unit volume in the vial inversion test (measured as % w/v).
(§3) Pre-weighed samples of short peptide 4 were prepared in aluminium-covered glass vials and Milli-Q water and 2 equivalents of NaOH (1.0 M) were added to make up concentrations of 1% w/v. The resulting suspensions were vortexed for 5 minutes to provide clear yellow solutions with pH 11.
(§4) To create a high ionic strength environment, 1 equivalent of NaCl was added and the vial was left to stand without disturbance for 3 hours at room temperature. Meanwhile, as an attempt to form a hydrogel by lowering the pH, 2 equivalents of GdL were added to a high pH solution of 4 followed by gentle mixing. These vials were inverted and allowed to stand overnight to confirm the hydrogel formation.
(§5) The formation of hydrogel 4 via the solvent switch method was conducted by dissolving short peptide 4, in an aluminium covered glass vial, with either 50% methanol, ethanol, or dimethyl sulfoxide (DMSO). Respective amounts of Mili-Q water were added to make up concentrations of 1% w/v.
(§6) In addition, gelation time was defined as the time (hours) required for 1% w/v of short peptide 4 to form a hydrogel which can be turned upside down without collapsing.
(§7) Pre-weighed samples of short peptides 10a-17a, 18, and 19 were prepared in glass vials with 10 mm internal diameter, and Milli-Q water was added to make up concentrations of 1% w/v. The resulting suspensions of short peptides 13, 18, and 19 (as ammonium or guanidinium salts) were slowly warmed until all solid had completely dissolved. GdL (1.5 to 2.0 equivalents) was added to the suspension of short peptides 10a-17a, before heat was applied. To create a high ionic strength environment, 1-5 equivalents of NaCl was added to the viscous solution of 10a-17a to make the total volume up to 1 mL, followed by gentle mixing, and the vial was left to stand without disturbance for 3 hours at room temperature. Subsequently, these vials were inverted and allowed to stand overnight to confirm hydrogel formation.

[2] = Frequency sweep test (FST), rheometer; conditions: for G′: 1% w/v
Procedure: The mechanical properties of anthranilamide-based cationic hydrogels were assessed using an Anton Paar MCR 302 rheometer with a 25 mm stainless parallel plate configuration.
(§8) Initially, 1 mL of hydrogels were prepared from short peptides 11-13 and 15-19 in glass vials at concentration of 1% w/v. These vials were warmed using a heat gun to transform the hydrogel to the solution phase. Subsequently, 560 μL of the resulting solutions were cast onto the rheometer plate. The other plate was lowered to the measuring position ([…]) and the hydrogel was allowed to stand for 3 hours for the gel to form. The FST was conducted at fixed strain of 0.1% and frequency ranging from 10 Hz to 0.01 Hz. Meanwhile, the strain sweep test (SST) was performed at a frequency of 1 Hz using 0.1% strain to 100% strain. The rheology data were shown as the average of three repeats for each data point.
(§9) The mechanical properties of hydrogels 4 (formed via addition of NaCl or GdL) before and after blue light irradiation were also assessed using an Anton Paar MCR 302 rheometer with a 25 mm stainless parallel plate configuration. Prior to the hydrogel formation, 560 μL of solution phase of short peptide 4 at 1% w/v were transferred onto a rheometer plate. Meanwhile, hydrogel 4, which had been exposed to blue light, was warmed using a heat gun, to provide its solution phase. Subsequently, 560 μL of this solution phase was cast onto the rheometer plate. The other plate was lowered to the measuring position ([…]) and the hydrogel was allowed to stand for 3 hours for the gel to form. The frequency sweep test (FST) was conducted at fixed strain of 0.1% and frequency ranging from 10 Hz to 0.01 Hz. Meanwhile, the SST was performed at a frequency of 1 Hz using 0.1% strain to 100% strain. In addition, the temperature sweep test was conducted to obtain transition glass (Tg) using fixed frequency of 1 Hz and fixed strain of 0.1% with temperature ramping from 25° C. to 90° C. The rheology data were shown as the average of three repeats for each data point.
In the FST, samples were measured over a range of oscillation frequencies (0.1-10 rad/s) at fixed strain, temperature, and oscillation amplitude. Higher frequencies simulate fast motion on a short time-scale, while low frequencies simulate slow motion on a long time-scale, or rest. All of the hydrogels made from the anthranilamide-based short cationic peptides, which passed the vial inversion test, were subjected to the FST using a rheometer to precisely assess their mechanical properties.

[3] = Strain sweep test (SST), linear viscoelastic region
Procedure: as §8, §9
To observe the structural decay in anthranilamide-based cationic hydrogels, the SST was performed by imposing a non-linear strain. SST provides information about the viscoelastic properties of a hydrogel through determination of its linear viscoelastic region (LVER). […] Here, the LVER reported for each hydrogel represents the deviation of storage modulus (G′) from linearity, known as yield point (γy). Yield points have been reported to reflect a point where the rigidity of a hydrogel starts to weaken.

[4] = Atomic force microscopy (AFM) of fibers
Procedure: Hydrogels of NO-releasing short peptide 4 (1 drop), at high pH, low pH, and after irradiation, were cast onto a mica substrate. Hydrogels of cationic short peptides 11-13 and 15-19 were prepared at their CGC, 2× below, and 4× below CGC in glass vials. Prior to gelation, one drop of the cationic short peptide solutions was cast onto a mica substrate. Using a glass slide, each droplet was carefully spread and was left to dry overnight before imaging. Imaging was performed using a Bruker Multimode 8 Atomic Force Microscope in Scanasyst Air (PeakForce Tappings) mode, which is based on tapping mode AFM. To prevent damage of soft samples, the imaging parameters were constantly optimized through the force curves that were collected. Bruker Scanasyst-Air probes were used, with a spring constant of 0.4-0.8 N·m^−1 and a tip radius of 2 nm.
To gain some insight on the mechanism of antibacterial action, the released solutions from hydrogel made of primary ammonium 11 were directly cast onto a mica substrate. […] After gently spreading using a glass slide and left to dry overnight, these samples were imaged using a similar manner as describe above.

[5] = Hydrogel formation, vial inversion test (critical gel concentration); set-up: key: VS: viscous solution; CG: clear gel
Text: as §1, §2, §3, §4, §5, §6, §7

[6] = hydrogels 11-13 at 1% w/v, FST fixed strain 0.1%

With `NCCCNC(=O)[C@H](Cc1ccccc1)NC(=O)c1ccccc1NC(=O)c1ccc2ccccc2c1` [Compound 11] the CGC ([1]; cationic peptides 10-14, triggers GdL, heat and NaCl (13: heat and NaCl)) was 0.1 % w/v, the pH ([1]; hydrogels of cationic peptides 10-14) was 5.5 and the “G′/G″ ratio” value ([2]; hydrogels 11-13 at 1% w/v) was 11.9. For the same compound, the “G′ (modulus storage)” value [2, 6] was 0.83 kPa, the “G″ (modulus loss)” value [2, 6] was 0.07 kPa and the “LVER (linear viscoelastic region)” value ([3]; hydrogels at 1% w/v, SST at 1 Hz, 0.1% to 100% strain) was 0.98 ± 0.05%. For the same compound, the fiber bundle diameter ([4]; hydrogel after addition of salt, 4× below CGC) was 115±5 nm, the “diameter of fibers in the released solution” value ([4]; solution released from hydrogel 11, below CGC) was 47±4.9 nm and the fiber diameter ([4]; viscous solution without salt, 0.05% w/v) was 74±6 nm. The “Remarks (gel state)” value ([5]; cationic peptides 10-14, vial inversion test) was “CG”.

With `O=C(Nc1ccccc1C(=O)N[C@@H](Cc1ccccc1)C(=O)N[C@@H](Cc1ccccc1)C(=O)O)c1ccc([N+](=O)[O-])c(C(F)(F)F)c1` [Compound 4, (2-(4-Nitro-3-(trifluoromethyl)benzamido)benzoyl)-L-phenylalanyl-L-phenylalanine] the “Time (gelation time)” value ([1]; solvent switch, DMSO 50 % v/v, 1% w/v) was “Immed”, the “Time (gelation time)” value ([1]; solvent switch, EtOH 5 % v/v) was “Immed” and the “Time (gelation time)” value ([1]; solvent switch, EtOH 50 % v/v, 1% w/v) was “Immed”. The “Time (gelation time)” value ([1]; solvent switch, MeOH 50 % v/v, 1% w/v) was “Immed”, the “CGC (critical gel concentration)” value ([1]; solvent switch, co-solvent DMSO 50 % v/v) was 0.4 % w/v and the “CGC (critical gel concentration)” value ([1]; solvent switch, co-solvent EtOH 50 % v/v) was 0.4 % w/v. For the same compound, the “CGC (critical gel concentration)” value ([1]; solvent switch, co-solvent MeOH 50 % v/v) was 0.4 % w/v, the “Time (self-assembly/gelation)” value ([1]; trigger NaOH) was 48 h and the pH ([1]; trigger NaOH) was 11. For the same compound, the “Time (self-assembly/gelation)” value ([1]; trigger NaOH + GdL) was 1 h, the pH ([1]; trigger NaOH + GdL) was 5.5 and 5.2 and the “CGC (critical gel concentration)” value ([1]; trigger NaOH + GdL (pH switch)) was 0.2 % w/v. The “CGC (critical gel concentration)” value ([1]; trigger NaOH + NaCl) was 0.2 % w/v, the “Time (self-assembly/gelation)” value ([1]; trigger NaOH + NaCl) was 3 h and the pH ([1]; trigger NaOH + NaCl) was 11. For the same compound, the “G′/G″” value ([2]; hydrogel 4 at pH 5.5-6) was 17, the “G″” value ([2]; hydrogel 4 at pH 5.5-6) was 0.6 kPa and the “G′” value ([2]; hydrogel 4 at pH 5.5-6 (low pH, GdL), before irradiation) was 10.2 kPa. The “G′/G″” value ([2]; hydrogel 4 at pH 11) was 12, the “G″” value ([2]; hydrogel 4 at pH 11) was 1.1 kPa and the “G′” value ([2]; hydrogel 4 at pH 11 (high pH, NaCl)) was 13.2 kPa. The “G′ after irradiation” value ([2]; hydrogel 4 irradiated (λ=440-450 nm) for 2 hours, after NO release) was 4.9 kPa, the “% strain (LVER)” value ([3]; hydrogel 4 at pH 5.5-6) was 1.4% and the “% strain (LVER)” value ([3]; hydrogel 4 at pH 11) was 1.2%. The “diameter of larger (bundled) fibers” value ([4]; hydrogel 4, before irradiation) was 104±4 nm, the fiber diameter ([4]; hydrogel 4 formed at high pH) was 40±3 nm and the fiber diameter ([4]; hydrogel 4 formed at low pH) was 43±5 nm. The “fiber bundle diameter after irradiation” value ([4]; hydrogel 4 irradiated for 2 hours (blue light)) was 68±6 nm, the “Remarks (gel state)” value ([5]; trigger NaOH) was “VS” and the “Remarks (gel state)” value ([5]; trigger NaOH + GdL) was “CG”. The “Remarks (gel state)” value ([5]; trigger NaOH + NaCl) was “CG”.

— patent US20230123497A1, “NOVEL ANTIBACTERIAL HYDROGELS” (NewSouth Innovations Pty Limited, priority 2020, published 2023)
